Experimental findings from article doi:10.1101/2024.05.17.594698v1 (bioRxiv, 2024) are described below.

Data set [1] concerns human CD4+ T cells. Put plainly: Cellular toxicity by Annexin V / PI staining. In kind it is cell-based. The settings on record: DOS 10 µM; Fig S4J, n = 4 donors.
Data set [2] has as its system recombinant sestrins (sestrin1-FLAG, sestrin2-FLAG). Put plainly: In vitro pull down with biotinylated DOS, recombinant tagged proteins. In kind it is binding. The following applies: DOS-biotin 10 µM, streptavidin beads, anti-flag immunoblot; Fig 1C. Background: Immunoblotting shows a protein as a band on a membrane.
Data set [3] relates to telomerase in human CD4+ Tsen. Put plainly: Telomerase activity. In kind it is cell-based. The settings on record: Tsen 3 days after DOS treatment; Fig S4I, n = 5 donors.
Data set [4] concerns the target T1, GATOR/mTOR complex proteins (MIOS and WDR59) (Homo sapiens, UniProt Q6PJI9+Q9NXC5).
T1 sequence (Q9NXC5 1-875): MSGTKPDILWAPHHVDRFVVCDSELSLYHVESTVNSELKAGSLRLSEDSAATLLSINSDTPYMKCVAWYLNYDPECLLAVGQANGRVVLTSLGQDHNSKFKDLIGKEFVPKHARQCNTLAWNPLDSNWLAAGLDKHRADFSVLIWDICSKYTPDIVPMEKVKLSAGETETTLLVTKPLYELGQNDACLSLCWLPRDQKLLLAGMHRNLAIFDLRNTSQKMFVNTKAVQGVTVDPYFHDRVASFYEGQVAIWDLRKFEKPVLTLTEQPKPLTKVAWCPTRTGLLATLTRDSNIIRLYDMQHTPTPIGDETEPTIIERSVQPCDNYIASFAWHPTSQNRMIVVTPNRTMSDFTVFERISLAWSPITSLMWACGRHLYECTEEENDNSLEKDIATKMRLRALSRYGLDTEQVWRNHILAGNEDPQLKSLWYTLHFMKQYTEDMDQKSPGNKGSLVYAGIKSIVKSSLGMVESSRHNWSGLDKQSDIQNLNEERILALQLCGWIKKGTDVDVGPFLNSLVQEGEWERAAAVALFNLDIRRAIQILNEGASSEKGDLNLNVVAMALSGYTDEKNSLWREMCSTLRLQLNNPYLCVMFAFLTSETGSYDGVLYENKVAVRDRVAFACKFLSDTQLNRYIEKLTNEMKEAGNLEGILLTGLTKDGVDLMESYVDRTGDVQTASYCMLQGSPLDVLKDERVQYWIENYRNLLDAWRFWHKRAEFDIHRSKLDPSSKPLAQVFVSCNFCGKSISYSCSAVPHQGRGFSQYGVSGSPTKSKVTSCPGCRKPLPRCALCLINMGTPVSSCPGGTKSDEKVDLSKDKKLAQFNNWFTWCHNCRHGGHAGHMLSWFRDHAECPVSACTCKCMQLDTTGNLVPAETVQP
T1 sequence (Q6PJI9 1-974): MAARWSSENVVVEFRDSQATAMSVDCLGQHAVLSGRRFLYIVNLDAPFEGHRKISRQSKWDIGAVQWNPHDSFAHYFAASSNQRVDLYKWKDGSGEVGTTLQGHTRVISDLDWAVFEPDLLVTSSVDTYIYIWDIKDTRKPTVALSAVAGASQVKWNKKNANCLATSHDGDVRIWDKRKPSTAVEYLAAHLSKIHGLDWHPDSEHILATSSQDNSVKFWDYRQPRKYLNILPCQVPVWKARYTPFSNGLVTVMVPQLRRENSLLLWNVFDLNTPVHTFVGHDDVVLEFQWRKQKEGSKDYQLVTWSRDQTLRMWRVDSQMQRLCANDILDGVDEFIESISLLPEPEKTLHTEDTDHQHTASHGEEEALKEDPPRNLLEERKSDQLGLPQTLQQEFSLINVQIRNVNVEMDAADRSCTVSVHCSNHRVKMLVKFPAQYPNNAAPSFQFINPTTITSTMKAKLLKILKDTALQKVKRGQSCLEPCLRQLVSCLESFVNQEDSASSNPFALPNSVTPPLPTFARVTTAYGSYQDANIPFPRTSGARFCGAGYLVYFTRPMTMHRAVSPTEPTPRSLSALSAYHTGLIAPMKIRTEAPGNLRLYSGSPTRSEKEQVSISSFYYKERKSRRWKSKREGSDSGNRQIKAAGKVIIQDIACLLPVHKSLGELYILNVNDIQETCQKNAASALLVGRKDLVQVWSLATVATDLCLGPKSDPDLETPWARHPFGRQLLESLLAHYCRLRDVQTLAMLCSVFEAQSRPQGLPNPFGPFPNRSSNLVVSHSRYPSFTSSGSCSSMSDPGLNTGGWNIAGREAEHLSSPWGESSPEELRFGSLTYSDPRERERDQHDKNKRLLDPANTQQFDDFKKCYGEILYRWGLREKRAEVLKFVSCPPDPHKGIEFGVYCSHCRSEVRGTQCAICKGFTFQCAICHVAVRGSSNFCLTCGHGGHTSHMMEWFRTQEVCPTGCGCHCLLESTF
Put plainly: Biotinylated DOS pull down from human CD4+ T cell extracts. Format: binding. The settings on record: overnight treatment, streptavidin IP, western blot, Fig 1H.

The target of data set [5] is AMPK1-His-tagged (Homo sapiens, UniProt Q13131). Put plainly: In vitro pull down with biotinylated DOS, recombinant tagged proteins. In kind it is binding. The following applies: DOS-biotin 10 µM, streptavidin beads; Fig 1C.
The test system of data set [6] is H1N1 virus. The settings on record: mouse, in vivo.
Data set [7] can be described thus: Observation of autoimmunity in pre-clinical cohorts. The following applies: large pre-clinical cohorts (over 400 animals). In kind it is in vivo.
Data set [8] concerns AMPK in human CD4+ Tsen. Put plainly: AMPK activity as ACC phosphorylation. Format: cell-based. The settings on record: 4 hours after DOS 10 µM treatment; Fig S3I right, blot number.
Data set [9] has as its system primary human CD4+ T cells. Put plainly: DOS-FITC incorporation by flow cytometry. In kind it is cell-based. The following applies: T cells depleted of all three sestrins by shRNAs; Fig 1F. A general note: In flow cytometry, cells or beads pass a laser one at a time.
Data set [10] has as its system primary T cell sMAC composed of sestrin and MAPK kinases. Put plainly: Biotinylated DOS pull down from human CD4+ T cell extracts. The settings on record: overnight treatment, streptavidin IP, western blot, Fig 1H. Format: binding.
Data set [11] concerns the target T2, ERK, JNK and p38 MAPK in Tsen sestrin 2 immunoprecipitates (sMACs) (Homo sapiens, UniProt P58004).
T2 sequence (P58004 1-480): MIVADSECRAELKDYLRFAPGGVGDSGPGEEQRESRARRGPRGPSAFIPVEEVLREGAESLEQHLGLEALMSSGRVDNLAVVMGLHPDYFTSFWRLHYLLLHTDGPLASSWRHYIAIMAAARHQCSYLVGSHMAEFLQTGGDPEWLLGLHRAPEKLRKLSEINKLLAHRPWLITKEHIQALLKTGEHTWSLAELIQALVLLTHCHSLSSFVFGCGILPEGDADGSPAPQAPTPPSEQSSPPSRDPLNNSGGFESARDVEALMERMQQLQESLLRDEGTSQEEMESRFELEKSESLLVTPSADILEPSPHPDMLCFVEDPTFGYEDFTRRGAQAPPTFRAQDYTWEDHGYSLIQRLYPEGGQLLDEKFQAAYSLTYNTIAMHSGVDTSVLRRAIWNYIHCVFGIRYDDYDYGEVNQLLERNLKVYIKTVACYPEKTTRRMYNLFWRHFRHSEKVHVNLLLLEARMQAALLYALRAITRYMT
Put plainly: ELISA-based in vitro kinase assay on sestrin 2 immunoprecipitates. In kind it is biochemical. The settings on record: DOS 10 µM, 30 minutes, ATP 200 μM; Fig 1I, n = 5 donors. (In general: In an ELISA, binding on a coated surface is turned into a signal by an enzyme label.)

Structures are written as SMILES. Where a SMILES comes first, the peptide text is derived from it.

AMPK1-His-tagged, sequence (Q13131 whole entry): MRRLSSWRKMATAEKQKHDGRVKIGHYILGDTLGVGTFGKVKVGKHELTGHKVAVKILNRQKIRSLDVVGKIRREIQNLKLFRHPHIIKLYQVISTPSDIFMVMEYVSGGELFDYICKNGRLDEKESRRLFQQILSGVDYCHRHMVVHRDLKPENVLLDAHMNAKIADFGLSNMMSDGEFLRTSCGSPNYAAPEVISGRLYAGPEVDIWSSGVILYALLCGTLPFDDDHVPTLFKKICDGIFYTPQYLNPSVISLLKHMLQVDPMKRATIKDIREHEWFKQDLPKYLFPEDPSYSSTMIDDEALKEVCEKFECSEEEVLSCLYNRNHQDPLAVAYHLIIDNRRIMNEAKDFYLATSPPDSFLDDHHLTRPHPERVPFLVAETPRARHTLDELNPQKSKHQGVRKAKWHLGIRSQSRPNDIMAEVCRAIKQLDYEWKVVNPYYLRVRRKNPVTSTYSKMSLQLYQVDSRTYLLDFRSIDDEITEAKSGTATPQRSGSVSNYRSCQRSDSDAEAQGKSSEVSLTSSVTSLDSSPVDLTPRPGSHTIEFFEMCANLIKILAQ

Regarding `CC[C@H](C)[C@@H]1NC(=O)[C@H](Cc2ccccc2)NC(=O)[C@H](C)NC(=O)[C@H](C(C)C)NC(=O)[C@@H]2CCCN2C1=O` [DOS] (cyclo(AFIPV)), the “Cell damage or death (Annexin-propidium iodide staining)” value in data set [1] is “did not cause cell damage or death”. In data set [2], the “Direct binding to recombinant sestrins” value was “direct DOS binding to sestrins”. Moreover, the Telomerase activity result in [3] is “not affected”. Further, the “Binding to GATOR/mTOR complex proteins” value in data set [4] is listed as “not to GATOR/mTOR complex proteins”. In data set [5], the “Direct binding to recombinant AMPK” value is “not AMPK”. For the same molecule, the “Lung necrosis after H1N1 infection” value in data set [6] was “no sign of lung necrosis”. Moreover, the Spontaneous autoimmunity entry in [7] is listed as “yet to see any autoimmunity case”. In addition, the “p-ACC/ACC by immunoblotting, fold change to untreated control set as 1” value in data set [8] came to 0.25. The “DOS entrance in sestrin-null T cells” value in data set [9] was “did not enter”. Besides, the “Binding to primary T cell sMAC” value in data set [10] is “directly bound”. In addition, the “ERK, JNK and p38 MAPK kinase activity (autophosphorylation) in sMAC” value in data set [11] is on record as “suppressed”.
